Data taken from ChEMBL document CHEMBL4840349, “Macrocyclic Diterpenoid Constituents of Euphorbia deflexa, an Endemic Spurge from Greece” (J Nat Prod, 2021).
Active and inactive are the calls of the source. The rule behind the calls is not given here.

Assays:
HeLa = test: Cytotoxicity against human HeLa cells assessed as cell growth inhibition incubated for 68 hrs by MTT assay; assay type: functional, cell-based
SK-MEL-28 = test: Cytotoxicity against human SK-MEL-28 cells assessed as cell growth inhibition incubated for 68 hrs by MTT assay; assay type: functional, cell-based; details: SK-MEL-28, 68 h
Staphylococcus aureus = test: Antibacterial activity against Staphylococcus aureus DSM 20231 incubated for 20 hrs by MTT based double dilution method; assay type: functional, organism-based
Streptococcus pyogenes = test: Antibacterial activity against Streptococcus pyogenes DSM 20565-0316-001 incubated for 20 hrs by MTT based double dilution method; assay type: functional, organism-based
HepG2 = test: Cytotoxicity against human HepG2 cells assessed as cell growth inhibition incubated for 68 hrs by MTT assay; assay type: functional, cell-based; details: HepG2, 68 h
PC-3 = test: Cytotoxicity against human PC-3 cells assessed as cell growth inhibition incubated for 68 hrs by MTT assay; assay type: functional, cell-based; details: PC-3, 68 h

SMILES | IC50 (HeLa) | IC50 (SK-MEL-28) | Activity (Staphylococcus aureus) | Activity (Streptococcus pyogenes) | IC50 (HepG2) | IC50 (PC-3)
C/C=C(/C)C(=O)OC[C@@]1(C)[C@H]2[C@@H]3C=C(C)[C@@H](O)[C@]4(O)[C@@H](OC(=O)/C(C)=C\C)C(C)=C[C@@]4(C3=O)[C@H](C)C[C@]21OC(C)=O | 9.8 µM | > 10 µM | inactive | inactive |  | 
CC(=O)OC[C@@]12Cc3c(ccc(C)c3O)[C@]1(C)[C@@H](OC(C)=O)[C@]1(O)[C@H]([C@@H](OC(=O)c3ccccc3)[C@@H](C)[C@H]1OC(C)=O)[C@H]2OC(C)=O | > 5.8 µM | > 10 µM |  |  |  | 
C=C1[C@H](O)[C@H]2[C@@H](OC(=O)c3ccccc3)[C@](C)(OC(C)=O)[C@@H](OC(=O)c3ccccc3)[C@]2(O)[C@@H](O)[C@@H](C)/C=C/C(C)(C)[C@H](O)[C@H](OC(C)=O)[C@H]1OC(C)=O | 9.9 µM | > 10 µM | inactive | inactive | > 10 µM | > 10 µM
C=C1C(=O)O[C@@H]2C3O[C@]3(C)CC/C=C(\C)CC[C@@H]12 (some centres not stated) | 2.1 µM | 4.9 µM |  |  | 5.6 µM | > 10 µM
C/C=C(/C)C(=O)O[C@@H]1C2[C@@H](OC(=O)c3ccccc3)[C@@H](C)C[C@]2(O)C(=O)[C@@](C)(O)[C@H]2CC(C)(C)C(=O)[C@]2(O)[C@H]2O[C@@]12COC(C)=O (some centres not stated) | > 10 µM | > 10 µM | inactive | inactive | > 10 µM | > 10 µM
CC(=O)OC[C@@]12Cc3c(ccc(C)c3O)[C@]1(C)[C@@H](OC(C)=O)[C@@]1(O)C[C@@](C)(OC(C)=O)[C@H](OC(=O)c3ccccc3)[C@@H]1[C@H]2OC(C)=O | > 10 µM | > 10 µM |  |  |  | 
C/C=C(/C)C(=O)O[C@H]1C(C)=C[C@]23C(=O)[C@@H](C=C(C)[C@@H](O)[C@]12O)[C@H]1[C@@H](C[C@H]3C)C1(C)C | > 10 µM | > 10 µM |  |  | > 10 µM | > 10 µM
CC(=O)OCC(=O)O[C@@H]1[C@H]2[C@@H](OC(=O)c3ccccc3)[C@@H](C)C[C@]2(O)[C@H](O)[C@]2(O)[C@H](OC(C)=O)[C@@]1(OC(C)=O)C[C@H]1C(=O)C(C)(C)C[C@@H]12 | > 10 µM | > 10 µM |  |  | > 10 µM | > 10 µM
